Patent US11254676B2, “Pyrazole derivative compound and use thereof” (HANMI PHARM. CO., LTD., priority 2017, dated 2022)

These compounds were tested on NCI-H1417 cells (assay: Cell growth suppression test, CellTiter-Glo Luminescent Cell Viability Assay). Details: Homo sapiens, 240 h; NCI-H1417 cells treated for 10 days.
Assay type: cell-based
Protocol: Cell growth suppression effects of the synthesized compounds on NCI-H1417 cells were identified. The cells were treated with the synthesized compounds for 10 days. Then, in order to test the cell growth suppression, CellTiter-Glo Luminescent Cell Viability Assay (available from Promega, USA) was used. This test is to measure emission signals proportional to the number of ATPs based on a fixed amount of ATPs, which represents the presence of metabolically active cells, thereby determining the number of viable cells. The results are expressed as a GI50 value. As for a control, GSK2879552 (available from GlaxoSmithKline USA) was used.

| Compound | GI50 [nM] |
| --- | --- |
| CC(C)(C)c1ccc(-n2nc(C(=O)N3CCC[C@@H](N)C3)cc2-c2ccc(C#N)cc2)cc1 [Example 40, (R)-4-(3-(3-aminopiperidine-1-carbonyl)-1-(4-(tert-butyl)phenyl)-1H-pyrazole-5-yl)benzonitrile] | 226 |
| CN[C@@H]1CCCN(C(=O)c2cc(-c3ccc(C#N)cc3)n(-c3ccc(C(C)(C)C)cc3)n2)C1 [Example 41] | 126 |
| N#Cc1ccc(-c2cc(C(=O)N3CCC[C@@H](N)C3)nn2-c2ccc(N3CCC(N4CCCCC4)CC3)cc2F)cc1F [Example 83, (R)-4-(1-(4-([1,4′-bipiperidine]-1′-yl)-2-fluorophenyl)-3-(3-aminopiperidine-1-carbonyl)-1H-pyrazole-5-yl)-2-fluorobenzonitrile] | 71 |
| CC(C)(C)c1ccc(-n2nc(C(=O)N3CCCC[C@@H](N)C3)cc2-c2ccc(C#N)c(F)c2)c(F)c1 [Example 44] | 133 |
| N#Cc1ccc(-c2cc(C(=O)N3CCC[C@@H](N)C3)nn2-c2ccc3c(c2)CCC3)cc1 [Example 87, (R)-4-(3-(3-aminopiperidine-1-carbonyl)-1-(2,3-dihydro-1H-indane-5-yl)-1H-pyrazole-5-yl)benzonitrile] | 142 |
| CN[C@@H]1CCCN(C(=O)c2cc(-c3ccc(C#N)cc3)n(-c3ccc(C4CC4)cc3F)n2)C1 [Example 4, (R)-4-(1-(4-cyclopropyl-2-fluorophenyl)-3-(3-(methylamino)piperidine-1-carbonyl)-1H-pyrazole-5-yl)benzonitrile] | 24 |
| N#Cc1ccc(-c2cc(C(=O)N3CCCC[C@@H](N)C3)nn2-c2ccc(N3CCCC3)cc2F)cc1F [Example 60, (R)-4-(3-(3-aminoazepane-1-carbonyl)-1-(2-fluoro-4-(pyrrolidine-1-yl)phenyl)-1H-pyrazole-5-yl)-2-fluorobenzonitrile] | 53 |
| CC1CC(C)CN(c2ccc(-n3nc(C(=O)N4CCC[C@@H](N)C4)cc3-c3ccc(C#N)c(F)c3)c(F)c2)C1 (stereo partly drawn) [Example 82, 4-(3-((R)-3-aminopiperidine-1-carbonyl)-1-(4-(3,5-dimethylpiperidine-1-yl)-2-fluorophenyl)-1H-pyrazole-5-yl)-2-fluorobenzonitrile] | 119 |
| N#Cc1ccc(-c2cc(C(=O)N3CCCC[C@@H](N)C3)nn2-c2ccc(N3CCCCC3)cc2F)cc1F [Example 84, (R)-4-(3-(3-aminoazepane-1-carbonyl)-1-(2-fluoro-4-(piperidine-1-yl)phenyl)-1H-pyrazole-5-yl)-2-fluorobenzonitrile] | 84 |
| CN[C@@H]1CCCN(C(=O)c2cc(-c3ccc(C#N)c(F)c3)n(-c3ccc(N4CC[C@H](OC)C4)cc3F)n2)C1 [Example 68, 2-fluoro-4-(1-(2-fluoro-4-((S)-3-methoxypyrrolidine-1-yl)phenyl)-3-((R)-3-(methylamino)piperidine-1-carbonyl)-1H-pyrazole-5-yl)benzonitrile] | 6.8 |
| N#Cc1ccc(-c2cc(C(=O)N3CCC[C@@H](N)C3)nn2-c2ccc(N3CCCCC3)cc2F)cc1 [Example 77, (R)-4-(3-(3-aminopiperidine-1-carbonyl)-1-(2-fluoro-4-(piperidine-1-yl)phenyl)-1H-pyrazole-5-yl)benzonitrile] | 67 |
| N#Cc1ccc(-c2cc(C(=O)N3CCC[C@@H](N)C3)nn2-c2ccc(C3CC3)cc2F)cc1F [Example 5, (R)-4-(3-(3-aminopiperidine-1-carbonyl)-1-(4-cyclopropyl-2-fluorophenyl)-1H-pyrazole-5-yl)-2-fluorobenzonitrile] | 48 |
| COc1cc(N2CCCC2)ccc1-n1nc(C(=O)N2CCC[C@@H](N)C2)cc1-c1ccc(C#N)c(F)c1 [Example 76, (R)-4-(3-(3-aminopiperidine-1-carbonyl)-1-(2-methoxy-4-(pyrrolidine-1-yl)phenyl)-1H-pyrazole-5-yl)-2-fluorobenzonitrile] | 43 |
| COC1CCN(c2ccc(-n3nc(C(=O)N4CCC[C@@H](N)C4)cc3-c3ccc(C#N)c(F)c3)c(F)c2)C1 (stereo partly drawn) [Example 65, 4-(3-((R)-3-aminopiperidine-1-carbonyl)-1-(2-fluoro-4-(3-methoxypyrrolidin-1-yl)phenyl)-1H-pyrazol-5-yl)-2-fluorobenzonitrile] | 58 |
| CO[C@@H]1CCN(c2ccc(-n3nc(C(=O)N4CCC[C@@H](N)C4)cc3-c3ccc(C#N)c(F)c3)c(F)c2)C1 [Example 69, 4-(3-((R)-3-aminopiperidine-1-carbonyl)-1-(2-fluoro-4-((R)-3-methoxypyrrolidine-1-yl)phenyl)-1H-pyrazole-5-yl)-2-fluorobenzonitrile] | 38 |
| CN[C@@H]1CCCN(C(=O)c2cc(-c3ccc(C#N)cc3)n(-c3ccc(C(C)C)cc3)n2)C1 [Example 36, (R)-4-(1-(4-isopropylphenyl)-3-(3-(methylamino)piperidine-1-carbonyl)-1H-pyrazole-5-yl) benzonitrile] | 91 |

| Compound | GI50 [nM] |
| --- | --- |
| CC(C)c1ccc(-n2nc(C(=O)N3CCC[C@@H](N)C3)cc2-c2ccc(C#N)cc2)cc1 [Example 35, (R)-4-(3-(3-aminopiperidine-1-carbonyl)-1-(4-isopropylphenyl)-1H-pyrazole-5-yl)benzonitrile] | 145 |
| CN(C)c1ccc(-n2nc(C(=O)N3CCC[C@@H](N)C3)cc2-c2ccc(C#N)cc2)cc1 [Example 53] | 102 |
| N#Cc1ccc(-c2cc(C(=O)N3CCC[C@@H](N)C3)nn2-c2ccc(N3CCCC3)cc2F)cc1F [Example 58, (R)-4-(3-(3-aminopiperidine-1-carbonyl)-1-(2-fluoro-4-(pyrrolidine-1-yl)phenyl)-1H-pyrazole-5-yl)-2-fluorobenzonitrile] | 24 |
| N#Cc1ccc(-c2cc(C(=O)N3CCC[C@@H](N)C3)nn2-c2ccc(N3CCC(O)C3)cc2F)cc1F (stereo partly drawn) [Example 72, 4-(3-((R)-3-aminopiperidine-1-carbonyl)-1-(2-fluoro-4-(3-hydroxypyrrolidine-1-yl)phenyl)-1H-pyrazole-5-yl)-2-fluorobenzonitrile] | 38 |
| N#Cc1ccc(-c2cc(C(=O)N3CCC[C@@H](N)C3)nn2-c2ccc(C3CC3)cc2F)cc1 [Example 3, (R)-4-(3-(3-aminopiperidine-1-carbonyl)-1-(4-cyclopropyl-2-fluorophenyl)-1H-pyrazole-5-yl)benzonitrile] | 49 |
| CN[C@@H]1CCCN(C(=O)c2cc(-c3ccc(C#N)c(F)c3)n(-c3ccc(N4CCC(OC)C4)cc3F)n2)C1 (stereo partly drawn) [Example 66, 2-fluoro-4-(1-(2-fluoro-4-(3-methoxypyrrolidine-1-yl)phenyl)-3-((R)-3-(methylamino)piperidine-1-carbonyl)-1H-pyrazole-5-yl)benzonitrile] | 16 |
| CN[C@@H]1CCCN(C(=O)c2cc(-c3ccc(C#N)c(F)c3)n(-c3ccc(N4CCC(F)(F)C4)cc3F)n2)C1 [Example 64, (R)-4-(1-(4-(3,3-difluoropyrrolidine-1-yl)-2-fluorophenyl)-3-(3-(methylamino)piperidine-1-carbonyl)-1H-pyrazole-5-yl)-2-fluorobenzonitrile] | 19 |
| CC(C)(C)c1ccc(-n2nc(C(=O)N3CCC[C@@H](N)C3)cc2-c2ccc(C#N)c(F)c2)c(F)c1 [Example 43] | 69 |
| N#Cc1ccc(-c2cc(C(=O)N3CCC[C@@H](N)C3)nn2-c2ccc(N3CC[C@@H](F)C3)cc2F)cc1F [Example 61, 4-(3-((R)-3-aminopiperidine-1-carbonyl)-1-(2-fluoro-4-((R)-3-fluoropyrrolidine-1-yl)phenyl)-1H-pyrazole-5-yl)-2-fluorobenzonitrile] | 82 |
| N#Cc1ccc(-c2cc(C(=O)N3CCC[C@@H](N)C3)nn2-c2ccc(N3CCC(F)(F)C3)cc2F)cc1F [Example 63, (R)-4-(3-(3-aminopiperidine-1-carbonyl)-1-(4-(3,3-difluoropyrrolidine-1-yl)-2-fluorophenyl)-1H-pyrazole-5-yl)-2-fluorobenzonitrile] | 33 |
| N#Cc1ccc(-c2cc(C(=O)N3CCC[C@@H](N)C3)nn2-c2ccc(N3CCCCC3)cc2F)cc1F [Example 78, (R)-4-(3-(3-aminopiperidine-1-carbonyl)-1-(2-fluoro-4-(piperidine-1-yl)phenyl)-1H-pyrazole-5-yl)-2-fluorobenzonitrile] | 34 |
| CCO[C@H]1CCN(c2ccc(-n3nc(C(=O)N4CCC[C@@H](NC)C4)cc3-c3ccc(C#N)c(F)c3)c(F)c2)C1 [Example 71, 2-fluoro-4-(1-(2-fluoro-4-((S)-3-ethoxypyrrolidine-1-yl)phenyl)-3-((R)-3-(methylamino)piperidine-1-carbonyl)-1H-pyrazole-5-yl)benzonitrile] | 10 |
| N#Cc1ccc(-c2cc(C(=O)N3CCC[C@@H](N)C3)nn2-c2ccc3c(c2)CCC3)cc1F [Example 88, (R)-4-(3-(3-aminopiperidine-1-carbonyl)-1-(2,3-dihydro-1H-inden-5-yl)-1H-pyrazole-5-yl)-2-fluorobenzonitrile] | 173 |
| CN[C@@H]1CCCN(C(=O)c2cc(-c3ccc(C#N)c(F)c3)n(-c3ccc(N4CC[C@H](Cl)C4)cc3F)n2)C1 [Example 73, 2-fluoro-4-(1-(2-fluoro-4-((S)-3-chloropyrrolidine-1-yl)phenyl)-3-((R)-3-(methylamino)piperidine-1-carbonyl)-1H-pyrazole-5-yl)benzonitrile] | 39 |
| N#Cc1ccc(-c2cc(C(=O)N3CCCC[C@@H](N)C3)nn2-c2ccc(C3CC3)cc2F)cc1F [Example 8, (R)-4-(3-(3-aminoazepane-1-carbonyl)-1-(4-cyclopropyl-2-fluorophenyl)-1H-pyrazole-5-yl)-2-fluorobenzonitrile] | 101 |
| CN[C@@H]1CCCN(C(=O)c2cc(-c3ccc(C#N)cc3)n(-c3ccc(C4CC4)cc3)n2)C1 [Example 2, (R)-4-(1-(4-cyclopropylphenyl)-3-(3-methylaminopiperidine-1-carbonyl)-1H-pyrazole-5-yl)benzonitrile] | 120 |
